Consider 31 molecules from patent US10654832B2, “3-(benzoimidazol-2-YL)-indazole inhibitors of the Wnt signaling pathway and therapeutic uses thereof” (Samumed, LLC, priority 2013, dated 2020).

For the test, the system named is Wnt activity (wnt-responsive SP5 promoter luciferase reporter in SW480 cells). Put plainly: Wnt activity reporter assay (SP5 promoter-firefly luciferase in SW480 cells). It is filed as cell-based. The settings on record: Homo sapiens; SW480 colon cancer cells with SP5 promoter luciferase reporter; 24 h after compound addition; half-log dilutions, three micromolar top concentration; normalized to DMSO; read-out: Wnt inhibition. The text has this: The above synthesized compounds were screened using the assay procedure for Wnt activity described below.
Reporter cell lines were generated by stably transducing cells of cancer cell lines (e.g., colon cancer) with a lentiviral construct that include a wnt-responsive promoter driving expression of the firefly luciferase gene.
Lentiviral constructs were made in which the SP5 promoter, a promoter having eight TCF/LEF binding sites derived from the SP5 promoter, was linked upstream of the firefly luciferase gene. The lentiviral constructs included a hygromycin resistance gene as a selectable marker. The SP5 promoter construct was used to transduce SW480 cells, a colon cancer cell line having a mutated APC gene that generates a truncated APC protein, leading to de-regulated accumulation of β-catenin.
Cultured SW480 cells bearing a reporter construct were distributed at approximately 10,000 cells per well into 384 well multiwell plates. Compounds were then added to the wells in half-log dilutions using a three micromolar top concentration. A series of control wells for each cell type received only buffer and compound solvent. Twenty-four hours after the addition of compound, reporter activity for luciferases was assayed, for example, by addition of the BrightGlo luminescence reagent (Promega) and the Victor3 plate reader (Perkin Elmer). Readings were normalized to DMSO only treated cells, and normalized activities were then used for the IC50 calculations.
(In general: In a reporter assay the amount or activity of a reporter protein is the signal.)

Consider `Fc1cccc(-c2cccc3[nH]c(-c4n[nH]c5ccc(-c6cccnc6)cc45)nc23)c1` [Compound 4, 3-(4-(3-Fluorophenyl)-1H-benzo[d]imidazol-2-yl)-5-(pyridin-3-yl)-1H-indazole], for which the IC50 came to 4 nM.
Regarding `Fc1ccccc1-c1cccc2[nH]c(-c3n[nH]c4ccc(-c5cncc(CN6CCCCC6)c5)cc34)nc12` [Compound 63, 3-(4-(2-Fluorophenyl)-1H-benzo[d]imidazol-2-yl)-5-(5-(piperidin-1-ylmethyl)pyridin-3-yl)-1H-indazole], the IC50 was 10 nM.
Consider `CC(C)CC(=O)Nc1cncc(-c2ccc3[nH]nc(-c4nc5c(-c6ccc(F)cc6)cccc5[nH]4)c3c2)c1` [Compound 26, N-(5-(3-(4-(4-Fluorophenyl)-1H-benzo[d]imidazol-2-yl)-1H-indazol-5-yl)pyridin-3-yl)-3-methylbutanamide], for which the IC50 was 179 nM.
`CCNCc1cncc(-c2ccc3[nH]nc(-c4nc5ccccc5[nH]4)c3c2)c1` [Compound 222]: the IC50 is 235 nM.
Regarding `CCCCC(=O)Nc1cncc(-c2ccc3[nH]nc(-c4nc5c(-c6ccncc6)cccc5[nH]4)c3c2)c1` [Compound 114, N-(5-(3-(4-(Pyridin-4-yl)-1H-benzo[d]imidazol-2-yl)-1H-indazol-5-yl)pyridin-3-yl)pentanamide], the IC50 was 67 nM.
The figure for `Fc1ccc(-c2cccc3[nH]c(-c4n[nH]c5ccc(-c6cncc(CN7CCCC7)c6)cc45)nc23)cc1` [Compound 38, 3-(4-(4-Fluorophenyl)-1H-benzo[d]imidazol-2-yl)-5-(5-(pyrrolidin-1-ylmethyl)pyridin-3-yl)-1H-indazole] is 153 nM; for `CN(C)c1cncc(-c2ccc3[nH]nc(-c4nc5c(-c6cccc(F)c6)cccc5[nH]4)c3c2)c1` [Compound 7, 5-(3-(4-(3-Fluorophenyl)-1H-benzo[d]imidazol-2-yl)-1H-indazol-5-yl)-N,N-dimethylpyridin-3-amine] it is 8 nM; for `O=C(Nc1cncc(-c2ccc3[nH]nc(-c4nc5c(-c6cccc(F)c6)cccc5[nH]4)c3c2)c1)C1CC1` [Compound 19, N-(5-(3-(4-(3-Fluorophenyl)-1H-benzo[d]imidazol-2-yl)-1H-indazol-5-yl)pyridin-3-yl)cyclopropanecarboxamide] it is 5 nM.
For `O=C(Nc1cncc(-c2ccc3[nH]nc(-c4nc5c(-c6ccc(F)cc6)cccc5[nH]4)c3c2)c1)C1CC1` [Compound 43, N-(5-(3-(4-(4-Fluorophenyl)-1H-benzo[d]imidazol-2-yl)-1H-indazol-5-yl)pyridin-3-yl)cyclopropanecarboxamide] the value was 43 nM.
The figure for `CCCCC(=O)Nc1cncc(-c2ccc3[nH]nc(-c4nc5c(-c6ccc(F)cc6)cccc5[nH]4)c3c2)c1` [Compound 42, N-(5-(3-(4-(4-Fluorophenyl)-1H-benzo[d]imidazol-2-yl)-1H-indazol-5-yl)pyridin-3-yl)pentanamide] is 33 nM; for `CC(C)(C)C(=O)Nc1cncc(-c2ccc3[nH]nc(-c4nc5c(-c6ccncc6)cccc5[nH]4)c3c2)c1` [Compound 104, N-(5-(3-(4-(Pyridin-4-yl)-1H-benzo[d]imidazol-2-yl)-1H-indazol-5-yl)pyridin-3-yl)pivalamide] it is 65 nM; for `O=C(Nc1cncc(-c2ccc3[nH]nc(-c4nc5ccccc5[nH]4)c3c2)c1)c1ccccc1` [Compound 227, N-(5-(3-(1H-Benzo[d]imidazol-2-yl)-1H-indazol-5-yl)pyridin-3-yl) benzamide] it is 99 nM.
For the molecule `CCCC(=O)Nc1cncc(-c2ccc3[nH]nc(-c4nc5c(-c6cccnc6)cccc5[nH]4)c3c2)c1` [Compound 89, N-(5-(3-(4-(Pyridin-3-yl)-1H-benzo[d]imidazol-2-yl)-1H-indazol-5-yl)pyridin-3-yl)butyramide], the IC50 worked out at 4 nM.
Turning to `O=C(Nc1cncc(-c2ccc3[nH]nc(-c4nc5ccccc5[nH]4)c3c2)c1)C1CC1` [Compound 235, N-(5-(3-(1H-Benzo[d]imidazol-2-yl)-1H-indazol-5-yl)pyridin-3-yl) cyclopropanecarboxamide], the IC50 amounted to 25 nM.
Turning to `Fc1ccccc1-c1cccc2[nH]c(-c3n[nH]c4ccc(-c5cncc(CNCC6CCCC6)c5)cc34)nc12` [Compound 72, 1-Cyclopentyl-N-((5-(3-(4-(2-fluorophenyl)-1H-benzo[d]imidazol-2-yl)-1H-indazol-5-yl)pyridin-3-yl)methyl)methanamine], the IC50 came out at 1140 nM.
With `Cc1cn(-c2cccc3[nH]c(-c4n[nH]c5ccc(-c6cncc(NC(=O)C7CCCC7)c6)cc45)nc23)cn1` [Compound 189, N-(5-(3-(4-(4-Methyl-1H-imidazol-1-yl)-1H-benzo[d]imidazol-2-yl)-1H-indazol-5-yl)pyridin-3-yl)cyclopentanecarboxamide], the IC50 is 13 nM.
For `Fc1ccc(-c2cccc3[nH]c(-c4n[nH]c5ccc(-c6cncc(CNCc7ccccc7)c6)cc45)nc23)cc1` [Compound 47, N-benzyl-1-(5-(3-(4-(4-Fluorophenyl)-1H-benzo[d]imidazol-2-yl)-1H-indazol-5-yl)pyridin-3-yl)methanamine], the IC50 was found to be 450 nM.
For `Cc1ccncc1-c1ccc2[nH]nc(-c3nc4c(-c5ccccn5)cccc4[nH]3)c2c1` [Compound 125, 5-(4-Methylpyridin-3-yl)-3-(4-(pyridin-2-yl)-1H-benzo[d]imidazol-2-yl)-1H-indazole] the value was 54 nM; for `c1ccc(-c2cccc3[nH]c(-c4n[nH]c5ccc(-c6cncc(CN7CCCC7)c6)cc45)nc23)nc1` [Compound 134, 3-(4-(Pyridin-2-yl)-1H-benzo[d]imidazol-2-yl)-5-(5-(pyrrolidin-1-ylmethyl)pyridin-3-yl)-1H-indazole], 219 nM; for `Cc1ccncc1-c1ccc2[nH]nc(-c3nc4c(-c5cccc(F)c5)cccc4[nH]3)c2c1` [Compound 5, 3-(4-(3-Fluorophenyl)-1H-benzo[d]imidazol-2-yl)-5-(4-methylpyridin-3-yl)-1H-indazole], 34 nM.
The figure for `CC(C)(C)C(=O)Nc1cncc(-c2ccc3[nH]nc(-c4nc5c(-c6ccc(F)cc6)cccc5[nH]4)c3c2)c1` [Compound 32, N-(5-(3-(4-(4-Fluorophenyl)-1H-benzo[d]imidazol-2-yl)-1H-indazol-5-yl)pyridin-3-yl)pivalamide] is 35 nM; for `CCCC(=O)Nc1cncc(-c2ccc3[nH]nc(-c4nc5c(-c6ccoc6)cccc5[nH]4)c3c2)c1` [Compound 281, N-(5-(3-(4-(Furan-3-yl)-1H-benzo[d]imidazol-2-yl)-1H-indazol-5-yl)pyridin-3-yl)butyramide] it is 25 nM.
In the case of `CN1CCN(c2cccc3[nH]c(-c4n[nH]c5ccc(-c6cncc(NC(=O)C(C)(C)C)c6)cc45)nc23)CC1` [Compound 200, N-(5-(3-(4-(4-Methylpiperazin-1-yl)-1H-benzo[d]imidazol-2-yl)-1H-indazol-5-yl)pyridin-3-yl)pivalamide], the IC50 was found to be 76 nM.
For `Cc1cn(-c2cccc3[nH]c(-c4n[nH]c5ccc(-c6cncc(NC(=O)c7ccccc7)c6)cc45)nc23)cn1` [Compound 179, N-(5-(3-(4-(4-Methyl-1H-imidazol-1-yl)-1H-benzo[d]imidazol-2-yl)-1H-indazol-5-yl)pyridin-3-yl)benzamide] the value was 10 nM; for `CCCC(=O)Nc1cncc(-c2ccc3[nH]nc(-c4nc5c(-c6ccc(F)cc6)cccc5[nH]4)c3c2)c1` [Compound 41, N-(5-(3-(4-(4-Fluorophenyl)-1H-benzo[d]imidazol-2-yl)-1H-indazol-5-yl)pyridin-3-yl)butyramide], 15 nM; for `O=C(Nc1cncc(-c2ccc3[nH]nc(-c4nc5c(-c6ccc(F)cc6)cccc5[nH]4)c3c2)c1)C1CCCCC1` [Compound 46, N-(5-(3-(4-(4-Fluorophenyl)-1H-benzo[d]imidazol-2-yl)-1H-indazol-5-yl)pyridin-3-yl)cyclohexanecarboxamide], 225 nM.
For `CC(C)Nc1cncc(-c2ccc3[nH]nc(-c4nc5c(-c6ccoc6)cccc5[nH]4)c3c2)c1` [Compound 276, 5-(3-(4-(Furan-3-yl)-1H-benzo[d]imidazol-2-yl)-1H-indazol-5-yl)-N-isopropylpyridin-3-amine], the IC50 came out at 16 nM.
The figure for `Cc1ccncc1-c1ccc2[nH]nc(-c3nc4c(N5CCN(C)CC5)cccc4[nH]3)c2c1` [Compound 197, 3-(4-(4-Methylpiperazin-1-yl)-1H-benzo[d]imidazol-2-yl)-5-(4-methylpyridin-3-yl)-1H-indazole] is 249 nM.
As for `CC(C)Nc1cncc(-c2ccc3[nH]nc(-c4nc5c(N6CCCCC6)cccc5[nH]4)c3c2)c1` [Compound 156, N-Isopropyl-5-(3-(4-(piperidin-1-yl)-1H-benzo[d]imidazol-2-yl)-1H-indazol-5-yl)pyridin-3-amine], the IC50 is 66 nM.
In the case of `CC(C)C(=O)Nc1cncc(-c2ccc3[nH]nc(-c4nc5c(-c6cccc(F)c6)cccc5[nH]4)c3c2)c1` [Compound 9, N-(5-(3-(4-(3-Fluorophenyl)-1H-benzo[d]imidazol-2-yl)-1H-indazol-5-yl)pyridin-3-yl)isobutyramide], the IC50 turned out to be 250 nM.
The figure for `O=C(Nc1cncc(-c2ccc3[nH]nc(-c4nc5c(-c6ccccc6F)cccc5[nH]4)c3c2)c1)c1ccccc1` [Compound 59, N-(5-(3-(4-(2-Fluorophenyl)-1H-benzo[d]imidazol-2-yl)-1H-indazol-5-yl)pyridin-3-yl)benzamide] is 332 nM.
